Tested on: VEGF-stimulated angiogenesis
Assay: CAM assay of VEGF-stimulated angiogenesis: intravenous TM-601, comparison and combination with Avastin and Lucentis
Assay type: in vivo, chick
Details: for relative potency of inhibition of VEGF-stimulated angiogenesis, molar basis: TM-601, Avastin and Lucentis compared on a molar basis
Protocol: The CAM assay was performed using two different methods, depending on the contract laboratory where it was performed. At one contract laboratory, fertilized chick eggs were incubated at 37° C. with 55% humidity. Ten days after fertilization, a small hole was punctured with a hypodermic needle in the area of the shell concealing the air sac. A second hole was punctured in the shell on the broadside of the egg directly over an avascular portion of the embryonic membrane. A false air sac was created beneath the second hold by the application of negative pressure to the first hole, which caused the membrane to separate from the shell. A window approximately 1.0 cm^2 in area was cut in the shell over the dropped CAM with the use of a small grinding wheel, allowing direct access to the underlying CAM. Filter disks were soaked in 3 mg/mL rtisone acetate and subsequently air dried under sterile conditions. […] Sterile filter disks with VEGF at 2 μg/mL were placed on the growing CAMs. […] CAMs were harvested on the 3rd day of stimulation. The CAM tissue directly beneath the filter disk was removed from the embryos and tissues were washed three times with PBS. Blood vessel branch points in the 5 m filter disk area were counted at 30× magnification as a quantitative indicator of vascular sprouting in response to the pro-angiogenic compounds. Each egg was analyzed by two different operators and the average reading was reported. The following equation was used to calculate the mean percent angiogenesis inhibition with VEGF-stimulation:
At the second contract laboratory, the CAM assay was performed as follows. Fertilized chicken eggs were incubated at 37.5° C. in a humidified egg incubator with forced air circulation. […] On embryonic day 7, the CAM membranes were examined and quantitatively analyzed for new blood vessel formation after injection of dyed non-fat dry milk solution. The treatment effects on angiogenesis were evaluated by determining vascular density indexed (VDI) on CAMs only with viable chicken embryos. […]

bevacizumab [Avastin]
relative potency of inhibition of VEGF-stimulated angiogenesis, molar basis: more effective than TM-601

ranabizumab [Lucentis]
relative potency of inhibition of VEGF-stimulated angiogenesis, by weight of inhibitor (TM-601, Avastin and Lucentis compared on a mass basis): most potent
relative potency of inhibition of VEGF-stimulated angiogenesis, molar basis: more effective than TM-601

From US8470607B2, “Inhibition of angiogenesis” (Morphotek, Inc., priority 2008, dated 2013)
